Entries after “also recorded” stand apart in the source; their conditions may differ.
How the values were obtained:
Assay type in all cases: biochemical
[1] = tested on: lipase; experiment: Lipase Activity Assay Kit III, lipase stock treated with equal part of test product versus sterile water; conditions: 0.01% HOCl solution, 37° C. for 1 hour
Procedure: Merck describes a fluorimetric method where lipase activity is determined using a coupled enzyme reaction, which results in the generation of methylresorufin (lex=529/lem=600 nm) proportional to the enzymatic activity present. One unit of lipase is the amount of enzyme that will generate […] of methylresorufin from the substrate per minute at 37° C. (Lipase Activity Assay Kit III Catalog Number MAK048). The lipase stock was treated with equal part of the test product. The control consisted of equal parts of the lipase stock and sterile water. Both were incubated at 37° C. for 1 hour.
The Lipase Activity Assay Kit III (Sigma MAK048) consisted of materials for a standard, a positive control and background control. Once all the controls and the standard were set-up into a 96-well microtiter plate according to the provided instructions, 2 μL of the lipase treatments were diluted into 998 μL of the provided Lipase Assay Buffer. In the microtiter plate, 2 μL of this dilution was added to 48 μL of the Lipase Assay Buffer in quintuplicate. The reaction mix was added to every well except for the standard.
Using the SpectraMax M5, the plate was shaken and incubated for 3 minutes prior to reading the relative fluorescence units (RFU) at λex/λem=529/600 nm. Incubation was continued at 37° C. and the microtiter plate was read every 5 minutes for 1 hour with shaking prior to every reading.

[2] = tested on: Talaromyces flavus lipase; experiment: Lipase Activity Assay Kit III, Talaromyces flavus lipase treated with HOCl; conditions: one hour at 37° C.
Procedure: (§1) Lipases from Burkholderia cepacia, Pseudomonas fluorescens, Thermus thermophilus, Talaromyces flavus and Burkholderia species were obtained from Sigma (Catalog Numbers 62309, 28602, L3419, L3294 and 75577, respectively) and were diluted into sterile water for testing.
(§2) Alternative procedure: Activity of 0.01% HOCl in saline pH 4 against each lipase was determined as follows. 10 μL of 0.01% HOCl was added to 90 μL of 2 mg/mL lipase (final concentration of HOCl 0.001%). After one hour of incubation at 37° C., the lipase-HOCl solutions were diluted 500-fold into lipase buffer. Alternatively, 90 μL of 0.01% HOCl was added to 10 μL solution of 2 mg/mL lipase (final concentration of HOCl 0.009%) and after an hour of incubation at 37° C., the lipase-HOCl solutions were diluted 50-fold into lipase buffer. The lipase activity was determined using the Lipase Activity Assay Kit III (Sigma Aldrich®, St. Louis, Mo., USA).
(§3) Alternative procedure without a 10 minutes incubation: A SpectraMax® M5 Microplate Reader was used to continuously incubate the microtiter plate at 37° C. and measure the fluorescence ([…]=529/600 nm) every 5 minutes for 1.5 hours with no incubation period. The results are shown on FIG. 1. […]
(§4) Activity of lipases from Pseudomonas fluorescens, Thermusthermophilus, flavus and Burkholderia are determined using methods similar to the one described above for Burkholderia cepacia lipase. […]

[3] = tested on: Pseudomonas fluorescens lipase; experiment: Lipase Activity Assay Kit III, Pseudomonas fluorescens lipase treated with HOCl; conditions: one hour at 37° C.
Procedure: as §1, §2, §3, §4

[4] = biological target: T1, Burkholderia cepacia lipase (Burkholderia cepacia, UniProt P22088); experiment: Lipase Activity Assay Kit III, Burkholderia cepacia lipase treated with HOCl; conditions: one hour at 37° C.
T1 construct: purchased Sigma 62309
Procedure: as §1
Activity of 0.01% HOCl in saline pH 4 against Burkholderia cepacia lipase was determined as follows. 0.01% HOCl was added to a solution of 2 mg/mL of Pseudomonas cepacia lipase (Sigma Aldrich®, St. Louis, Mo., USA). After an hour of incubation at 37° C., the lipase-HOCl solutions were diluted 500-fold into lipase buffer. The lipase activity was determined using the Lipase Activity Assay Kit III (Sigma Aldrich®, St. Louis, Mo., USA).
as §2
A SpectraMax® M5 Microplate Reader was used to continuously incubate the microtiter plate at 37° C. and measure the fluorescence ([…]=529/600 nm) every 5 minutes for 1.5 hours after an initial 10-minute incubation period. The results are shown on FIG. 1.
Alternative procedure without a 10 minutes incubation: A SpectraMax® M5 Microplate Reader was used to continuously incubate the microtiter plate at 37° C. and measure the fluorescence ([…]=529/600 nm) every 5 minutes for 1.5 hours with no incubation period. The results are shown on FIG. 1. […] The results are shown on FIGS. 1, 2, and 3. […] In the presence of 0.009% HOCl, all lipases were inactivated (FIGS. 2, 3).

[5] = 0.001% HOCl final concentration
[6] = 0.009% HOCl final concentration

T1 sequence (P22088 45-364): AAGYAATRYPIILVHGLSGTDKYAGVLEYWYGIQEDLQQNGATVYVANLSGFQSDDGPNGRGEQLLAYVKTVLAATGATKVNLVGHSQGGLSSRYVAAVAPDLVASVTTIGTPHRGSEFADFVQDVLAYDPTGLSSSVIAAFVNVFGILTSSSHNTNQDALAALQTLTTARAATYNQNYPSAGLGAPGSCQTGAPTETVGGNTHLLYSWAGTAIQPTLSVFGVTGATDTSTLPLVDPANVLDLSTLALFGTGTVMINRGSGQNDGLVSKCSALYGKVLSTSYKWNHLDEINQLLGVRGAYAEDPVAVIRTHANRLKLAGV

OCl [HOCl, hypochlorous acid]
inactivation of lipase versus sterile water control [1]: inactivates lipase
inactivation of Talaromyces flavus lipase [2, 5]: inactivation; also recorded: completely inactivated
inactivation of Talaromyces flavus lipase [2, 6]: inactivated
inactivation of Pseudomonas fluorescens lipase [3, 5]: still active
inactivation of Pseudomonas fluorescens lipase [3, 6]: inactivation; also recorded: inactivated
inactivation of Burkholderia cepacia lipase [4, 5]: still active
inactivation of Burkholderia cepacia lipase [4, 6]: inactivation; also recorded: inactivated
inactivation of bacterial lipase (lipase activity, fluorescence) ([4]; 0.01% HOCl in saline pH 4, 2 mg/mL lipase): completely inactivated
